{
  "source": "the kinase profiling compilation of Christmann-Franck et al. (2016)",
  "assay_in_all_cases": "KINOMEscan competition binding",
  "details_in_all_cases": "compound 10.0 µM",
  "key": {"[1]": {"molecular_target": "DMPK (human) (UniProt Q09013)"}, "[2]": {"molecular_target": "BRSK2 (human) (UniProt Q8IWQ3)"}, "[3]": {"tested_on": "RET (human), P07949 [V804L]"}, "[4]": {"molecular_target": "DAPK3 (human) (UniProt O43293)", "sequence (O43293 whole entry, looked up)": "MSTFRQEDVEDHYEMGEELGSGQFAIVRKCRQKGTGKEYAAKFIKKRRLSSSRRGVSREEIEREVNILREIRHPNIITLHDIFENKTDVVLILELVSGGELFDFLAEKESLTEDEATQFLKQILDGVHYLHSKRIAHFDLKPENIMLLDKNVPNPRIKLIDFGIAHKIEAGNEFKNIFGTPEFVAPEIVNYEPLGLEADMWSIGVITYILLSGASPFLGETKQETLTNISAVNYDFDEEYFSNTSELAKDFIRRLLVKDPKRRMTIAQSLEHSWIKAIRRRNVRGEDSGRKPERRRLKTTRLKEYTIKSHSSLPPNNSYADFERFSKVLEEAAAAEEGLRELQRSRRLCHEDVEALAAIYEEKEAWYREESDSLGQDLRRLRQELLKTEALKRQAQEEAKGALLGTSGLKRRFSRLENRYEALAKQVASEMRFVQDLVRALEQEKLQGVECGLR"}, "[5]": {"molecular_target": "AURKB (human) (UniProt Q96GD4)"}, "[6]": {"molecular_target": "MKNK1 (human) (UniProt Q9BUB5)"}, "[7]": {"molecular_target": "PAK2 (human) (UniProt Q13177)"}, "[8]": {"molecular_target": "RPS6KA6 KD1 (human) (UniProt Q9UK32)"}, "[9]": {"molecular_target": "CDK5 (human) (UniProt Q00535)"}, "[10]": {"molecular_target": "PIK3CB (human) (UniProt P42338)"}, "[11]": {"molecular_target": "DAPK1 (human) (UniProt P53355)", "sequence (P53355 whole entry, looked up)": "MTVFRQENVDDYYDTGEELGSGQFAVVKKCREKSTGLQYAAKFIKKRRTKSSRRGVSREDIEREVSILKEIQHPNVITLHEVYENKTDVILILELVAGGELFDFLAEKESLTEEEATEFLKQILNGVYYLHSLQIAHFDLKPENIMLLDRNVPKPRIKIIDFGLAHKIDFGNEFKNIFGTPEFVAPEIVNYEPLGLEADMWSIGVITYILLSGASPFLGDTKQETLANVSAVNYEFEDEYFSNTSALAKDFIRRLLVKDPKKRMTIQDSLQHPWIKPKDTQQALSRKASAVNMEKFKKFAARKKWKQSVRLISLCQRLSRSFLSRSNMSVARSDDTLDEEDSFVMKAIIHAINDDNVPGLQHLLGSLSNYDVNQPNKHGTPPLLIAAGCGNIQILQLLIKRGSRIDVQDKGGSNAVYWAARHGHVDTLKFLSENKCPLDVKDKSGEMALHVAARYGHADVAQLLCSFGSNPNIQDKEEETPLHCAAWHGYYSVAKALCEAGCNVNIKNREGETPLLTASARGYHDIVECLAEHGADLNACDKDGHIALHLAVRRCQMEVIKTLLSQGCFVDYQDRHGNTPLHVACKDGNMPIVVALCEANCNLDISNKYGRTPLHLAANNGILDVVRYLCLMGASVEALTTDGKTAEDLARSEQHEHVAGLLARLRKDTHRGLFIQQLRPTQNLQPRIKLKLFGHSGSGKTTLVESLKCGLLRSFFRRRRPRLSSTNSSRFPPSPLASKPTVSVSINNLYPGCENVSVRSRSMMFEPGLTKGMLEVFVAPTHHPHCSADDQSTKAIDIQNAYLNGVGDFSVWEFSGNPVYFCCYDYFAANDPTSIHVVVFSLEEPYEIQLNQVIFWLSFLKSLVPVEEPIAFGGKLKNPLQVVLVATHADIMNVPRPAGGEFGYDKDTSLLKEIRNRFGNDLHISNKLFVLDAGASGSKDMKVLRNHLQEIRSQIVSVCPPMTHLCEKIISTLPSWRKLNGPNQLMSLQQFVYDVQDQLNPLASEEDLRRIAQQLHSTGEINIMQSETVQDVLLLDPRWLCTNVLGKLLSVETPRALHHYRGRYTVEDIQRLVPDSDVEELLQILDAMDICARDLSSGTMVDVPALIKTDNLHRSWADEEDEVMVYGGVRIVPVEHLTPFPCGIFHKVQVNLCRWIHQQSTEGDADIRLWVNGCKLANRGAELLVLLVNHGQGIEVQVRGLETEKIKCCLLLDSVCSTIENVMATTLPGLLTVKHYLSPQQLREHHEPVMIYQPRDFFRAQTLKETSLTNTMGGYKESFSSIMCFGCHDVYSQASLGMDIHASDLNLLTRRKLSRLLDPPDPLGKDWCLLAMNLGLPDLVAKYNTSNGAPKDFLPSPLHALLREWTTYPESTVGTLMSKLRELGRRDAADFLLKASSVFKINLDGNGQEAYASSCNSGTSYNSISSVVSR"}, "[12]": {"molecular_target": "TEK (human) (UniProt Q02763)"}, "[13]": {"molecular_target": "LRRK2 (human) (UniProt Q5S007)"}, "[14]": {"molecular_target": "CDK18 (human) (UniProt Q07002)", "sequence (Q07002 whole entry, looked up)": "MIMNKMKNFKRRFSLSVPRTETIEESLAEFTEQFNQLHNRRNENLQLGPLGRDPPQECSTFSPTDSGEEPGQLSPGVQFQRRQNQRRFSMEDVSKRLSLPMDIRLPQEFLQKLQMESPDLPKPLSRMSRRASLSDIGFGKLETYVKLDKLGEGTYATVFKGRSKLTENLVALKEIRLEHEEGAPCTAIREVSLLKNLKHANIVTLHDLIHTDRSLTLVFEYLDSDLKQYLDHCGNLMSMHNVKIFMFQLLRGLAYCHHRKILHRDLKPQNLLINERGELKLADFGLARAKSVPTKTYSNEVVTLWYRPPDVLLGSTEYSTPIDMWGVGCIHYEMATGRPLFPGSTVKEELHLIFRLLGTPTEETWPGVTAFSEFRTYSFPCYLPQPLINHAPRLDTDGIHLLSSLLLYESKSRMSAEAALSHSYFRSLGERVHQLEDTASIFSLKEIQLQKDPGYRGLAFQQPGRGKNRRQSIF"}, "[15]": {"molecular_target": "CSNK1G1 (human) (UniProt Q9HCP0)", "sequence (Q9HCP0 whole entry, looked up)": "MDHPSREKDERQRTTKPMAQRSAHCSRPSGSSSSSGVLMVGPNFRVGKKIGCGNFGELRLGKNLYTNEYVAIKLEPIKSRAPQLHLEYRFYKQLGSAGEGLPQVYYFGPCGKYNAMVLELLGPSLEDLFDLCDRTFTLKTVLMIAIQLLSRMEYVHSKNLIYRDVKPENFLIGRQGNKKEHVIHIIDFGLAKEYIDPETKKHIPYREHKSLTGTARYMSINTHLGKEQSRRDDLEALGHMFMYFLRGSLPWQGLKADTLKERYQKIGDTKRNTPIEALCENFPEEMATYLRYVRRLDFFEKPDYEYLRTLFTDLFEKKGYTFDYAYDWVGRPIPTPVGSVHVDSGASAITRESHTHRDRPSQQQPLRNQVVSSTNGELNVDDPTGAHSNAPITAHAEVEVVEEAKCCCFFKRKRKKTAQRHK"}, "[16]": {"molecular_target": "PDPK1 (human) (UniProt O15530)"}, "[17]": {"molecular_target": "SGK110 (human) (UniProt P0C264)"}, "[18]": {"molecular_target": "NTRK3 (human) (UniProt Q16288)"}, "[19]": {"molecular_target": "NEK9 (human) (UniProt Q8TD19)"}, "[20]": {"molecular_target": "CASK (human) (UniProt O14936)"}, "[21]": {"molecular_target": "RPS6KB1 (human) (UniProt P23443)", "sequence (P23443 whole entry, looked up)": "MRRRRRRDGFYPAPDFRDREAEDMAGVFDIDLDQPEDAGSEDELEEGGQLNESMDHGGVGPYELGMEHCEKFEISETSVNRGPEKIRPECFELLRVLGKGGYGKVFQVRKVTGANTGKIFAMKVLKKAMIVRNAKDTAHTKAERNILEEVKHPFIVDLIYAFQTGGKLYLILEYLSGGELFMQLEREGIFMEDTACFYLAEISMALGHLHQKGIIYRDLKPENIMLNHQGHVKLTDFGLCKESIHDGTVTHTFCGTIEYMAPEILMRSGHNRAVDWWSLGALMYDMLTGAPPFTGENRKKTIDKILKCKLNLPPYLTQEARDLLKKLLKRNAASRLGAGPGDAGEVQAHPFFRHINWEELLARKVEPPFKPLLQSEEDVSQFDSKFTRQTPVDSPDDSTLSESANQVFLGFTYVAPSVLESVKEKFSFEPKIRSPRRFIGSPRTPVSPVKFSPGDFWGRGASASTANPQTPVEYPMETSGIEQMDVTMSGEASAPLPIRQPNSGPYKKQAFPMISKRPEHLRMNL"}, "[22]": {"molecular_target": "MAPK12 (human) (UniProt P53778)"}, "[23]": {"molecular_target": "CDK11B (human) (UniProt P21127)"}, "[24]": {"molecular_target": "LCK (human) (UniProt P06239)"}, "[25]": {"molecular_target": "PRKD3 (human) (UniProt O94806)"}, "[26]": {"molecular_target": "RPS6KA5 KD1 (human) (UniProt O75582)"}, "[27]": {"molecular_target": "RIPK4 (human) (UniProt P57078)"}, "[28]": {"molecular_target": "DYRK1A (human) (UniProt Q13627)"}, "[29]": {"molecular_target": "AKT2 (human) (UniProt P31751)"}, "[30]": {"molecular_target": "PIK3CG (human) (UniProt P48736)"}, "[31]": {"molecular_target": "PRKAA2 (human) (UniProt P54646)"}, "[32]": {"molecular_target": "KIT (human) (UniProt P10721)"}, "[33]": {"molecular_target": "MAP3K15 (human) (UniProt Q6ZN16)"}, "[34]": {"molecular_target": "CDKL2 (human) (UniProt Q92772)", "sequence (Q92772 whole entry, looked up)": "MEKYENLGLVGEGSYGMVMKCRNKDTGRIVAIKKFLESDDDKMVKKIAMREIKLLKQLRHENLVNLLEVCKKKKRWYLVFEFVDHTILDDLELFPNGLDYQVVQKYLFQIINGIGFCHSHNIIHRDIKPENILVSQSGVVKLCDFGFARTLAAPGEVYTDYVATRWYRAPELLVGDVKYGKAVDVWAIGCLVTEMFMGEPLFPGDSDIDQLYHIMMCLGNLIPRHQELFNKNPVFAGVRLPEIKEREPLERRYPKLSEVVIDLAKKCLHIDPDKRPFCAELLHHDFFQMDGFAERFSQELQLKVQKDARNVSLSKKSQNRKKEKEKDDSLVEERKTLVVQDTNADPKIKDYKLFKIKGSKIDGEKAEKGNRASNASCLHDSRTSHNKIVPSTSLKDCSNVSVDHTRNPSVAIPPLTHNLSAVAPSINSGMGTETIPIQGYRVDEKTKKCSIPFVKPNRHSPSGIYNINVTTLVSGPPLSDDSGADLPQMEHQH"}, "[35]": {"molecular_target": "EPHB2 (human) (UniProt P29323)", "sequence (P29323 whole entry, looked up)": "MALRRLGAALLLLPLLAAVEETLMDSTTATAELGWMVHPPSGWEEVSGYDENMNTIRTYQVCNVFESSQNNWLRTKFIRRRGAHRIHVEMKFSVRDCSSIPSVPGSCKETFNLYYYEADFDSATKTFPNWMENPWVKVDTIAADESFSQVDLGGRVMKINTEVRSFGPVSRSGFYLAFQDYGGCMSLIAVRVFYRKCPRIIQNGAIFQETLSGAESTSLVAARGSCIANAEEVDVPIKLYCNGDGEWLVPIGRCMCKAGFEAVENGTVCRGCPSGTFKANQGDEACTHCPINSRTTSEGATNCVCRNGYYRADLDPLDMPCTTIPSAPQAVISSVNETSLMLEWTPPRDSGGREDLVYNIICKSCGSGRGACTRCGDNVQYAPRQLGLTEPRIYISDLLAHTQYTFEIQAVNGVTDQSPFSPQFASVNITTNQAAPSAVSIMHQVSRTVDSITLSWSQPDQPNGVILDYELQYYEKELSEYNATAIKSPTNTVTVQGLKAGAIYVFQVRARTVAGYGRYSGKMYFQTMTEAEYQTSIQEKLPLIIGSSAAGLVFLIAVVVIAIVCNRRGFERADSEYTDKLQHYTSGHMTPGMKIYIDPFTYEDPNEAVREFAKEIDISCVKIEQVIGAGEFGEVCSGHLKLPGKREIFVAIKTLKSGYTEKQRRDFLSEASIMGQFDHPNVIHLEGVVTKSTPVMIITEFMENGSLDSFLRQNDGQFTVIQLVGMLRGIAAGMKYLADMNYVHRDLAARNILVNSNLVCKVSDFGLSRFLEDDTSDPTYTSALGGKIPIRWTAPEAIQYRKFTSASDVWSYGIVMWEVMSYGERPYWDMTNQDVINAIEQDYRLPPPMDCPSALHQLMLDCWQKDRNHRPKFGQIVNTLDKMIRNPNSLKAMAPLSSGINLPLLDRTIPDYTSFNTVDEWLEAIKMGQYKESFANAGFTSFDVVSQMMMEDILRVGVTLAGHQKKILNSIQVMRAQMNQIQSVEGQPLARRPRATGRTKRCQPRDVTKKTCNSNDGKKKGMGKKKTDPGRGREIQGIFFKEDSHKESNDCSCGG"}, "[36]": {"molecular_target": "PIP5K1C (human) (UniProt O60331)"}, "[37]": {"molecular_target": "CDC2L2 (human) (UniProt Q9UQ88)"}, "[38]": {"molecular_target": "TGFBR1 (human) (UniProt P36897)"}, "[39]": {"molecular_target": "CAMK4 (human) (UniProt Q16566)"}},
  "data": [
    {"smiles": "N#C/C(=C1/Nc2ccccc2S1)c1ccnc(NCCc2cccnc2)n1", "values": [
      {"measurement": "kinase still bound, per cent of control", "setting": "[1]", "value": 100, "unit": "%"},
      {"measurement": "kinase still bound, per cent of control", "setting": "[2]", "value": 100, "unit": "%"},
      {"measurement": "kinase still bound, per cent of control", "setting": "[3]", "value": 100, "unit": "%"},
      {"measurement": "kinase still bound, per cent of control", "setting": "[4]", "value": 45, "unit": "%"},
      {"measurement": "kinase still bound, per cent of control", "setting": "[5]", "value": 89, "unit": "%"},
      {"measurement": "kinase still bound, per cent of control", "setting": "[6]", "value": 97, "unit": "%"},
      {"measurement": "kinase still bound, per cent of control", "setting": "[7]", "value": 34, "unit": "%"},
      {"measurement": "kinase still bound, per cent of control", "setting": "[8]", "value": 28, "unit": "%"},
      {"measurement": "kinase still bound, per cent of control", "setting": "[9]", "value": 100, "unit": "%"},
      {"measurement": "kinase still bound, per cent of control", "setting": "[10]", "value": 55, "unit": "%"},
      {"measurement": "kinase still bound, per cent of control", "setting": "[11]", "value": 32, "unit": "%"},
      {"measurement": "kinase still bound, per cent of control", "setting": "[12]", "value": 100, "unit": "%"},
      {"measurement": "kinase still bound, per cent of control", "setting": "[13]", "value": 100, "unit": "%"},
      {"measurement": "kinase still bound, per cent of control", "setting": "[14]", "value": 92, "unit": "%"},
      {"measurement": "kinase still bound, per cent of control", "setting": "[15]", "value": 42, "unit": "%"},
      {"measurement": "kinase still bound, per cent of control", "setting": "[16]", "value": 100, "unit": "%"},
      {"measurement": "kinase still bound, per cent of control", "setting": "[17]", "value": 100, "unit": "%"},
      {"measurement": "kinase still bound, per cent of control", "setting": "[18]", "value": 69, "unit": "%"},
      {"measurement": "kinase still bound, per cent of control", "setting": "[19]", "value": 90, "unit": "%"},
      {"measurement": "kinase still bound, per cent of control", "setting": "[20]", "value": 100, "unit": "%"},
      {"measurement": "kinase still bound, per cent of control", "setting": "[21]", "value": 41, "unit": "%"},
      {"measurement": "kinase still bound, per cent of control", "setting": "[22]", "value": 13, "unit": "%"},
      {"measurement": "kinase still bound, per cent of control", "setting": "[23]", "value": 96, "unit": "%"},
      {"measurement": "kinase still bound, per cent of control", "setting": "[24]", "value": 100, "unit": "%"},
      {"measurement": "kinase still bound, per cent of control", "setting": "[25]", "value": 84, "unit": "%"},
      {"measurement": "kinase still bound, per cent of control", "setting": "[26]", "value": 100, "unit": "%"},
      {"measurement": "kinase still bound, per cent of control", "setting": "[27]", "value": 8, "unit": "%"},
      {"measurement": "kinase still bound, per cent of control", "setting": "[28]", "value": 0, "unit": "%"},
      {"measurement": "kinase still bound, per cent of control", "setting": "[29]", "value": 89, "unit": "%"},
      {"measurement": "kinase still bound, per cent of control", "setting": "[30]", "value": 50, "unit": "%"},
      {"measurement": "kinase still bound, per cent of control", "setting": "[31]", "value": 100, "unit": "%"},
      {"measurement": "kinase still bound, per cent of control", "setting": "[32]", "value": 31, "unit": "%"},
      {"measurement": "kinase still bound, per cent of control", "setting": "[33]", "value": 100, "unit": "%"},
      {"measurement": "kinase still bound, per cent of control", "setting": "[34]", "value": 98, "unit": "%"},
      {"measurement": "kinase still bound, per cent of control", "setting": "[35]", "value": 100, "unit": "%"},
      {"measurement": "kinase still bound, per cent of control", "setting": "[36]", "value": 8.2, "unit": "%"},
      {"measurement": "kinase still bound, per cent of control", "setting": "[37]", "value": 85, "unit": "%"},
      {"measurement": "kinase still bound, per cent of control", "setting": "[38]", "value": 100, "unit": "%"},
      {"measurement": "kinase still bound, per cent of control", "setting": "[39]", "value": 100, "unit": "%"}
    ]}
  ]
}
